Data published in PubChem BioAssay AID1745844 (Carcinogenic Potency Database (CPDB), 2022).
The source made the active and inactive calls. The rule behind the calls is not given here.

Tested on: rodent lifetime carcinogenesis bioassay, tumor incidence TD50
Experiment: carcinogenic potency in animals, long-term in vivo studies, CPDB compilation (AID 1745844)
[1] = rat, strain Fischer 344, males, in feed, site: any site (literature study), lesion: several types, types named in the paper, dosed 78 weeks, study length 106 weeks
[2] = rat, strain Fischer 344, males, in feed, site: liver, lesion: hepatocellular adenoma + hepatocellular carcinoma + neoplastic nodule, dosed 78 weeks, study length 106 weeks
[3] = rat, strain Fischer 344, males, in feed, site: liver, lesion: hepatocellular carcinoma + neoplastic nodule, dosed 78 weeks, study length 106 weeks
[4] = rat, strain Fischer 344, males, in feed, site: liver, lesion: hepatocellular carcinoma, dosed 78 weeks, study length 106 weeks

O=NN1CCCCCCC1
TD50 (rat, strain Fischer 344, males, in drinking water, site: esophagus, lesion: basal-cell carcinoma, dosed 50 weeks, study length 125 weeks): 0.159 mg/kg/day | TD50 (rat, strain Fischer 344, males, in drinking water, site: esophagus, lesion: several types, types named in the paper, dosed 25 weeks, study length 115 weeks): 0.118 mg/kg/day | TD50 (rat, strain Fischer 344, males, in drinking water, site: esophagus, lesion: several types, types named in the paper, dosed 100 weeks, study length 115 weeks): 0.0735 mg/kg/day | carcinogen call (rat, strain Fischer 344, males, in drinking water, site: liver, lesion: hepatocellular carcinoma, dosed 50 weeks, study length 125 weeks): positive | TD50 (rat, strain Fischer 344, males, in drinking water, site: liver, lesion: several types, types named in the paper, dosed 100 weeks, study length 115 weeks): 0.198 mg/kg/day | TD50 (rat, strain Fischer 344, males, in drinking water, site: tongue, lesion: basal-cell carcinoma, dosed 50 weeks, study length 125 weeks): 0.171 mg/kg/day | TD50 (rat, strain Fischer 344, males, in drinking water, site: tongue, lesion: basal-cell carcinoma, dosed 100 weeks, study length 115 weeks): 0.105 mg/kg/day | TD50 (rat, strain Fischer 344, males, in drinking water, site: upper gastrointestinal tract, lesion: carcinoma, dosed 25 weeks, study length 115 weeks): 0.0363 mg/kg/day | TD50 (rat, strain Fischer 344, males, in drinking water, site: upper gastrointestinal tract, lesion: several types, types named in the paper, dosed 25 weeks, study length 115 weeks): 0.0512 mg/kg/day | TD50 (rat, strain Fischer 344, males, in drinking water, site: upper gastrointestinal tract, lesion: several types, types named in the paper, dosed 50 weeks, study length 125 weeks): 0.0571 mg/kg/day | TD50 (rat, strain Fischer 344, males, in drinking water, site: upper gastrointestinal tract, lesion: several types, types named in the paper, dosed 100 weeks, study length 115 weeks): 0.0292 mg/kg/day

CC(O)CN(CCO)N=O (configuration not stated)
TD50 (rat, strain Fischer 344, females, in drinking water, site: esophagus, lesion: several types, types named in the paper, dosed 50 weeks, study length 75 weeks): 6.74 mg/kg/day | TD50 (rat, strain Fischer 344, females, in drinking water, site: liver, lesion: angiosarcoma, dosed 50 weeks, study length 75 weeks): 4.5 mg/kg/day | TD50 (rat, strain Fischer 344, females, in drinking water, site: liver, lesion: hepatocellular carcinoma, dosed 50 weeks, study length 75 weeks): 1.02 mg/kg/day | TD50 (rat, strain Fischer 344, females, in drinking water, site: liver, lesion: several types, types named in the paper, dosed 50 weeks, study length 75 weeks): 1.12 mg/kg/day | TD50 (rat, strain Fischer 344, females, in drinking water, site: nasal cavity, lesion: olfactory carcinoma, dosed 50 weeks, study length 75 weeks): 5.44 mg/kg/day

C=C1CC[C@H](O)C/C1=C/C=C1\CCC[C@]2(C)[C@@H]([C@H](C)/C=C/[C@H](C)C(C)C)CC[C@@H]12
TD50 (mouse, strain C3H (MTV+), females, in feed, site: mammary gland, lesion: adenocarcinoma, dosed 104 weeks, study length 104 weeks): 39.6 mg/kg/day

CC1=C2C(=CO[C@H](C)[C@H]2C)C(=O)C(C(=O)O)=C1O
carcinogen call (rat, strain Fischer 344, males, in feed, site: kidney, lesion: clear-cell adenoma, dosed 60 weeks, study length 60 weeks): positive | carcinogen call (rat, strain Fischer 344, males, in feed, site: kidney, lesion: clear-cell adenoma, dosed 80 weeks, study length 80 weeks): positive

OC[C@@H](O)[C@@H](O)[C@H](O)[C@H](O)CO
TD50 (mouse, strain B6C3F1, females, in feed, site: all sites, lesion: hemangiosarcoma, dosed 103 weeks, study length 104 weeks): 46700 mg/kg/day (inactive) | TD50 (mouse, strain B6C3F1, females, in feed, site: all sites, lesion: lymphocytic leukemia, dosed 103 weeks, study length 104 weeks): 48000 mg/kg/day | carcinogen call (mouse, strain B6C3F1, males, in feed, site: any site (literature study), lesion: several types, types named in the paper, dosed 103 weeks, study length 104 weeks): negative (inactive) | TD50 (mouse, strain B6C3F1, males, in feed, site: lung, lesion: alveolar/bronchiolar adenoma + alveolar/bronchiolar carcinoma, dosed 103 weeks, study length 104 weeks): 98100 mg/kg/day | TD50 (rat, strain Fischer 344, females, in feed, site: any site (literature study), lesion: several types, types named in the paper, dosed 103 weeks, study length 104 weeks): 5000 mg/kg/day (inactive) | carcinogen call (rat, strain Fischer 344, males, in feed, site: any site (literature study), lesion: several types, types named in the paper, dosed 103 weeks, study length 104 weeks): negative (inactive) | TD50 (rat, strain Fischer 344, males, in feed, site: liver, lesion: hepatocellular adenoma + hepatocellular carcinoma + neoplastic nodule, dosed 103 weeks, study length 104 weeks): 18000 mg/kg/day

CCn1c2ccccc2c2cc(N)ccc21
TD50 (mouse, strain B6C3F1, females, in feed, site: any site (literature study), lesion: several types, types named in the paper, dosed 78 weeks, study length 95 weeks): 41.8 mg/kg/day | TD50 (mouse, strain B6C3F1, females, in feed, site: liver, lesion: hepatocellular adenoma + hepatocellular carcinoma + neoplastic nodule, dosed 78 weeks, study length 95 weeks): 33 mg/kg/day | TD50 (mouse, strain B6C3F1, females, in feed, site: liver, lesion: hepatocellular carcinoma, dosed 78 weeks, study length 95 weeks): 33 mg/kg/day | TD50 (mouse, strain B6C3F1, females, in feed, site: lung, lesion: alveolar/bronchiolar adenoma + alveolar/bronchiolar carcinoma, dosed 78 weeks, study length 95 weeks): 1780 mg/kg/day | TD50 (mouse, strain B6C3F1, males, in feed, site: any site (literature study), lesion: several types, types named in the paper, dosed 78 weeks, study length 95 weeks): 70.6 mg/kg/day | TD50 (mouse, strain B6C3F1, males, in feed, site: liver, lesion: hepatocellular adenoma + hepatocellular carcinoma + neoplastic nodule, dosed 78 weeks, study length 95 weeks): 49.8 mg/kg/day | TD50 (mouse, strain B6C3F1, males, in feed, site: liver, lesion: hepatocellular adenoma + hepatocellular carcinoma, dosed 78 weeks, study length 95 weeks): 49.8 mg/kg/day | TD50 (mouse, strain B6C3F1, males, in feed, site: liver, lesion: hepatocellular carcinoma, dosed 78 weeks, study length 95 weeks): 46.4 mg/kg/day | TD50 (rat, strain Fischer 344, females, in feed, site: Zymbal's gland, lesion: carcinoma, NOS + squamous-cell carcinoma, dosed 78 weeks, study length 107 weeks): 151 mg/kg/day | TD50 (rat, strain Fischer 344, females, in feed, site: Zymbal's gland, lesion: squamous-cell carcinoma, dosed 78 weeks, study length 107 weeks): 212 mg/kg/day | TD50 (rat, strain Fischer 344, females, in feed, site: any site (literature study), lesion: several types, types named in the paper, dosed 78 weeks, study length 107 weeks): 44.7 mg/kg/day | TD50 (rat, strain Fischer 344, females, in feed, site: liver + uterus + Zymbal's gland, lesion: hepatocellular carcinoma + neoplastic nodule + adenocarcinoma, NOS + carcinoma, NOS + squamous-cell carcinoma, dosed 78 weeks, study length 107 weeks): 55.1 mg/kg/day | TD50 (rat, strain Fischer 344, females, in feed, site: liver, lesion: hepatocellular adenoma + hepatocellular carcinoma + neoplastic nodule, dosed 78 weeks, study length 107 weeks): 237 mg/kg/day | TD50 (rat, strain Fischer 344, females, in feed, site: liver, lesion: hepatocellular carcinoma + neoplastic nodule, dosed 78 weeks, study length 107 weeks): 237 mg/kg/day | TD50 (rat, strain Fischer 344, females, in feed, site: uterus, lesion: adenocarcinoma, NOS, dosed 78 weeks, study length 107 weeks): 106 mg/kg/day | TD50 (rat, strain Fischer 344, males, in feed, site: Zymbal's gland, lesion: carcinoma, NOS + squamous-cell carcinoma, dosed 78 weeks, study length 106 weeks): 240 mg/kg/day | TD50 [1]: 42.7 mg/kg/day | TD50 (rat, strain Fischer 344, males, in feed, site: liver + skin + subcutaneous tissue + Zymbal's gland, lesion: hepatocellular carcinoma + neoplastic nodule + basal-cell carcinoma + squamous-cell carcinoma + squamous-cell papilloma + carcinom, dosed 78 weeks, study length 106 weeks): 28.1 mg/kg/day | TD50 [2]: 39.2 mg/kg/day | TD50 [3]: 39.2 mg/kg/day | TD50 [4]: 156 mg/kg/day | TD50 (rat, strain Fischer 344, males, in feed, site: skin + subcutaneous tissue, lesion: basal-cell carcinoma + squamous-cell carcinoma + squamous-cell papilloma, dosed 78 weeks, study length 106 weeks): 203 mg/kg/day | TD50 (rat, strain Fischer 344, males, in feed, site: skin + subcutaneous tissue, lesion: squamous-cell carcinoma + squamous-cell papilloma, dosed 78 weeks, study length 106 weeks): 257 mg/kg/day

Nc1ccc2c(c1)oc1ccccc12
TD50 (rat, strain Wistar, males, in feed, site: any site (literature study), lesion: benign tumor, dosed 89 weeks, study length 89 weeks): 1.57 mg/kg/day | TD50 (rat, strain Wistar, males, in feed, site: any site (literature study), lesion: malignant tumor, dosed 89 weeks, study length 89 weeks): 2.48 mg/kg/day | TD50 (rat, strain Wistar, males, in feed, site: liver, lesion: hepatoma, dosed 89 weeks, study length 89 weeks): 9.44 mg/kg/day

CC(O)CO (configuration not stated)
carcinogen call (rat, strain Charles River CD (Sprague-Dawley), females, in feed, site: liver, lesion: nodular hyperplasia, dosed 104 weeks, study length 104 weeks): negative (inactive) | carcinogen call (rat, strain Charles River CD (Sprague-Dawley), males, in feed, site: liver, lesion: nodular hyperplasia, dosed 104 weeks, study length 104 weeks): negative (inactive)

CN(N=O)c1ccc(N=O)cc1
TD50 (rat, strain CB, males, i.p., site: liver, lesion: hepatoma, dosed 26 weeks, study length 86 weeks): 1.5 mg/kg/day (inactive) | TD50 (rat, strain CB, males, i.p., site: peritoneal cavity, lesion: several types, types named in the paper, dosed 26 weeks, study length 86 weeks): 1.3 mg/kg/day

Nc1ccc2c(c1)C(=O)c1ccccc1C2=O
TD50 (mouse, strain B6C3F1, females, in feed, site: all sites + liver, lesion: lymphoma + hepatocellular carcinoma, dosed 79 weeks, study length 94 weeks): 1490 mg/kg/day | TD50 (mouse, strain B6C3F1, females, in feed, site: all sites, lesion: lymphoma, dosed 79 weeks, study length 94 weeks): 3160 mg/kg/day | TD50 (mouse, strain B6C3F1, females, in feed, site: any site (literature study), lesion: several types, types named in the paper, dosed 79 weeks, study length 94 weeks): 1620 mg/kg/day | TD50 (mouse, strain B6C3F1, females, in feed, site: liver, lesion: hepatocellular adenoma + hepatocellular carcinoma + neoplastic nodule, dosed 79 weeks, study length 94 weeks): 2820 mg/kg/day | TD50 (mouse, strain B6C3F1, females, in feed, site: liver, lesion: hepatocellular carcinoma, dosed 79 weeks, study length 94 weeks): 2820 mg/kg/day | TD50 (mouse, strain B6C3F1, females, in feed, site: lung, lesion: alveolar/bronchiolar adenoma + alveolar/bronchiolar carcinoma, dosed 79 weeks, study length 94 weeks): 33400 mg/kg/day | TD50 (mouse, strain B6C3F1, males, in feed, site: any site (literature study), lesion: several types, types named in the paper, dosed 79 weeks, study length 93 weeks): 952 mg/kg/day | TD50 (mouse, strain B6C3F1, males, in feed, site: liver, lesion: hepatocellular adenoma + hepatocellular carcinoma + neoplastic nodule, dosed 79 weeks, study length 93 weeks): 798 mg/kg/day | TD50 (mouse, strain B6C3F1, males, in feed, site: liver, lesion: hepatocellular adenoma + hepatocellular carcinoma, dosed 79 weeks, study length 93 weeks): 798 mg/kg/day | TD50 (mouse, strain B6C3F1, males, in feed, site: liver, lesion: hepatocellular carcinoma, dosed 79 weeks, study length 93 weeks): 755 mg/kg/day | TD50 (mouse, strain B6C3F1, males, in feed, site: lung, lesion: alveolar/bronchiolar adenoma + alveolar/bronchiolar carcinoma, dosed 79 weeks, study length 93 weeks): 19400 mg/kg/day | TD50 (rat, strain Fischer 344, females, in feed, site: any site (literature study), lesion: several types, types named in the paper, dosed 78 weeks, study length 109 weeks): 124 mg/kg/day (inactive) | TD50 [1]: 759 mg/kg/day | TD50 [2]: 101 mg/kg/day | TD50 [3]: 101 mg/kg/day | TD50 [4]: 268 mg/kg/day
